Laboratory results taken from the supplement of paper PMC10307832.

Legend:
Assay in all cases: relative viability (nuclei count vs DMSO), 5 days (fraction); higher = more cells survive
[1] = compound: COc1cc(-c2nn([C@H]3CC[C@H](N4CCN(C(C)=O)CC4)CC3)c3ncnc(N)c23)ccc1NC(=O)c1cc2ccccc2n1C + Cc1nc(Nc2ncc(C(=O)Nc3c(C)cccc3Cl)s2)cc(N2CCN(CCO)CC2)n1 [Dasatinib] (partner 0.075 µM)
Summary of the method: (§1)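 Dosing by pin tool came one day after lung cancer cell lines were seeded in 1536-well plates, using either one drug or a fixed anchor-drug dose plus five library-drug doses (not always all listed) in √10 steps. After 5 days, nuclei were counted on 4× images. Relative viability is treated-well nuclei count divided by vehicle-well nuclei count, and values are medians of duplicate plates.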

Midostaurin + Decitabine = compound: CO[C@@H]1[C@H](N(C)C(=O)c2ccccc2)C[C@H]2O[C@]1(C)n1c3ccccc3c3c4c(c5c6ccccc6n2c5c31)C(=O)NC4 [Midostaurin] + Nc1ncn([C@H]2C[C@H](O)[C@@H](CO)O2)c(=O)n1 [Decitabine] (partner 2 µM)
Summary of the method: as §1

Midostaurin + Phenformin = compound: CO[C@@H]1[C@H](N(C)C(=O)c2ccccc2)C[C@H]2O[C@]1(C)n1c3ccccc3c3c4c(c5c6ccccc6n2c5c31)C(=O)NC4 [Midostaurin] + N=C(N)NC(=N)NCCc1ccccc1 [Phenformin] (partner 250 µM)
Summary of the method: as §1

Midostaurin + Tozasertib = compound: CO[C@@H]1[C@H](N(C)C(=O)c2ccccc2)C[C@H]2O[C@]1(C)n1c3ccccc3c3c4c(c5c6ccccc6n2c5c31)C(=O)NC4 [Midostaurin] + Cc1cc(Nc2cc(N3CCN(C)CC3)nc(Sc3ccc(NC(=O)C4CC4)cc3)n2)n[nH]1 [Tozasertib] (partner 0.1 µM)
Summary of the method: as §1

Midostaurin + Bortezomib = compound: CO[C@@H]1[C@H](N(C)C(=O)c2ccccc2)C[C@H]2O[C@]1(C)n1c3ccccc3c3c4c(c5c6ccccc6n2c5c31)C(=O)NC4 [Midostaurin] + CC(C)C[C@H](NC(=O)[C@H](Cc1ccccc1)NC(=O)c1cnccn1)B(O)O [Bortezomib] (partner 0.002 µM)
Summary of the method: as §1

Cell Line | relative viability ([1]; first compound 0.0128 µM) | relative viability ([1]; first compound 0.04048 µM) | relative viability ([1]; first compound 0.128 µM) | relative viability ([1]; first compound 1.28 µM) | relative viability (Midostaurin + Decitabine; first compound 0.01 µM) | relative viability (Midostaurin + Decitabine; first compound 0.03162 µM) | relative viability (Midostaurin + Decitabine; first compound 0.1 µM) | relative viability (Midostaurin + Decitabine; first compound 0.3162 µM) | relative viability (Midostaurin + Phenformin; first compound 0.01 µM) | relative viability (Midostaurin + Phenformin; first compound 0.03162 µM) | relative viability (Midostaurin + Phenformin; first compound 0.1 µM) | relative viability (Midostaurin + Phenformin; first compound 0.3162 µM) | relative viability (Midostaurin + Tozasertib; first compound 0.01 µM) | relative viability (Midostaurin + Tozasertib; first compound 0.03162 µM) | relative viability (Midostaurin + Tozasertib; first compound 0.1 µM) | relative viability (Midostaurin + Tozasertib; first compound 0.3162 µM) | relative viability (Midostaurin + Bortezomib; first compound 0.01 µM) | relative viability (Midostaurin + Bortezomib; first compound 0.03162 µM) | relative viability (Midostaurin + Bortezomib; first compound 0.1 µM) | relative viability (Midostaurin + Bortezomib; first compound 0.3162 µM)
201T | 0.617 | 0.511 | 0.537 | 0.448 | 0.878 | 0.91 | 0.83 | 0.867 | 0.447 | 0.423 | 0.468 | 0.47 | 0.974 | 0.913 | 0.915 | 0.891 | 1.08 | 1.04 | 1.05 | 1.13
A-427 | 0.744 | – | 0.65 | 0.856 | 0.574 | 0.6 | 0.529 | 0.547 | 0.296 | 0.34 | 0.289 | 0.25 | 0.232 | 0.215 | 0.193 | 0.172 | 0.961 | 0.939 | 0.992 | 0.899
ABC-1 | 0.613 | 0.505 | 0.542 | 0.688 | 1.02 | 1.14 | 0.942 | 1.26 | 0.23 | 0.242 | 0.233 | 0.228 | 0.146 | 0.191 | 0.174 | 0.201 | 0.316 | 0.289 | 0.285 | 0.292
BEN | 0.251 | 0.32 | 0.351 | 0.318 | 0.732 | 0.712 | 0.685 | 0.806 | 0.298 | 0.235 | 0.245 | 0.243 | 0.501 | 0.551 | 0.401 | 0.459 | 0.797 | 0.841 | 0.909 | 1.09
COR-L23 | 0.503 | 0.529 | 0.462 | 0.665 | 0.381 | 0.441 | 0.448 | 0.434 | 0.446 | 0.411 | 0.418 | 0.388 | 0.204 | 0.198 | 0.166 | 0.152 | 0.871 | 0.957 | 0.936 | 0.81
COR-L 105 | 0.323 | 0.448 | 0.287 | 0.362 | 0.673 | 0.633 | 0.622 | 0.605 | 0.535 | 0.44 | 0.473 | 0.389 | 0.404 | 0.356 | 0.341 | 0.313 | 0.823 | 0.804 | 0.668 | 0.499
ChaGo-K-1 | 0.693 | 0.62 | 0.568 | 0.621 | 0.488 | 0.55 | 0.533 | 0.54 | 0.439 | 0.533 | 0.522 | 0.529 | 0.312 | 0.214 | 0.229 | 0.219 | 0.985 | 1.28 | 0.759 | 1.12
EKVX | 0.859 | 0.611 | 0.505 | 0.385 | 0.312 | 0.312 | 0.353 | 0.349 | 0.232 | 0.239 | 0.223 | 0.25 | 0.369 | 0.414 | 0.366 | 0.343 | 1.01 | 0.995 | 0.947 | 0.9
EMC-BAC-2 | 0.309 | 0.391 | 0.244 | 0.481 | 0.922 | 0.933 | 0.897 | 0.818 | 0.508 | 0.508 | 0.458 | 0.283 | 0.267 | 0.296 | 0.243 | 0.273 | 1.08 | 0.998 | 1.04 | 1.1
EPLC-272H | 0.407 | – | 0.391 | 0.347 | 0.35 | 0.332 | 0.356 | 0.345 | 0.31 | – | 0.282 | 0.303 | 0.261 | – | 0.186 | 0.311 | 0.921 | 0.927 | 1.05 | 1.11
H3255 | 0.345 | 0.313 | 0.434 | 0.307 | 0.6 | 0.557 | 0.615 | 0.524 | 0.376 | 0.34 | 0.311 | 0.34 | 0.624 | 0.635 | 0.61 | 0.695 | 0.857 | 0.832 | 0.731 | 0.789
HARA | 0.259 | 0.21 | 0.269 | 0.236 | 0.584 | 0.528 | 0.539 | 0.591 | 0.516 | 0.466 | 0.467 | 0.44 | 0.142 | 0.0861 | 0.0946 | 0.0968 | 1.12 | 1.03 | 1.07 | 1.12
HCC-15 | 0.638 | 0.593 | 0.684 | 0.731 | 0.657 | 0.669 | 0.614 | 0.585 | 0.47 | 0.459 | 0.472 | 0.44 | 0.449 | 0.419 | 0.249 | 0.324 | 1.04 | 0.946 | 0.999 | 1.08
HCC-78 | 0.375 | 0.401 | 0.234 | 0.24 | 0.651 | 0.676 | 0.613 | 0.72 | 0.797 | 0.603 | 0.693 | 0.462 | 0.421 | 0.422 | 0.408 | 0.366 | 0.431 | 0.45 | 0.474 | 0.328
HCC-366 | 0.711 | 0.517 | 0.667 | 0.607 | 0.383 | 0.364 | 0.325 | 0.298 | 0.597 | 0.528 | 0.689 | 0.615 | 0.146 | 0.126 | 0.0694 | 0.0567 | 1.02 | 1.04 | 1.02 | 1.1
